“And” between values parts separate entries of the source, which are not always exact repeats. Equal values may be shown once.
System: MCF7 complex spheroid growth, % test/control
Test: Anticancer human tumor MCF7 cell line growth inhibition [Asc];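 note: spheroids exposed to compounds for 7 days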;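 for viability, T/C: 100% = DMSO vehicle control wells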
Details: for viability, T/C: stronger effect = lower value; active = viability on the fitted dose curve at most 10% of control; inactive = the rest
Method in brief: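 Tumor cells were grown as multicellular spheroids with stromal HUVEC and mesenchymal stem cells and treated singly or in combination. Concentrations fell in half-log steps from the clinical Cmax, or from 10 microM where none was known.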

[1] = curve of first compound, second compound 0.00949 µM
[2] = curve of first compound, second compound 0.03 µM
[3] = curve of first compound, second compound 0.0949 µM
[4] = curve of first compound, second compound 0.3 µM
[5] = curve of first compound, second compound 0.949 µM
[6] = curve of first compound, second compound 3 µM
[7] = second compound 0.00949 µM, first compound 0.0316 µM
[8] = second compound 0.00949 µM, first compound 0.1 µM
[9] = second compound 0.00949 µM, first compound 0.316 µM
[10] = second compound 0.00949 µM, first compound 1 µM
[11] = second compound 0.03 µM, first compound 0.0316 µM
[12] = second compound 0.03 µM, first compound 0.1 µM
[13] = second compound 0.03 µM, first compound 0.316 µM
[14] = second compound 0.03 µM, first compound 1 µM
[15] = second compound 0.0949 µM, first compound 0.0316 µM
[16] = second compound 0.0949 µM, first compound 0.1 µM
[17] = second compound 0.0949 µM, first compound 0.316 µM
[18] = second compound 0.0949 µM, first compound 1 µM
[19] = second compound 0.3 µM, first compound 0.0316 µM
[20] = second compound 0.3 µM, first compound 0.1 µM
[21] = second compound 0.3 µM, first compound 0.316 µM
[22] = second compound 0.3 µM, first compound 1 µM
[23] = second compound 0.949 µM, first compound 0.0316 µM
[24] = second compound 0.949 µM, first compound 0.1 µM
[25] = second compound 0.949 µM, first compound 0.316 µM
[26] = second compound 0.949 µM, first compound 1 µM
[27] = second compound 3 µM, first compound 0.0316 µM
[28] = second compound 3 µM, first compound 0.1 µM
[29] = second compound 3 µM, first compound 0.316 µM
[30] = second compound 3 µM, first compound 1 µM

C#Cc1c(F)ccc2cc(O)cc(-c3ncc4c(N5CC6CCC(C5)N6)nc(OCC56CCCN5CC(F)C6)nc4c3F)c12 (stereo not drawn) + CNC(C)C(=O)NC1CN(S(=O)(=O)c2cccc(S(=O)(=O)N3CCC4CCC(C(=O)NC(c5ccccc5)c5ccccc5)N4C(=O)C(NC(=O)C(C)NC)C3)c2)CCC2CCC(C(=O)NC(c3ccccc3)c3ccccc3)N2C1=O
active: viability, T/C (second compound 0.00316 µM, first compound 3.16 µM) 11.3% | viability, T/C (second compound 0.00316 µM, first compound 10 µM) 2.37% | viability, T/C (second compound 0.01 µM, first compound 1 µM) 11.8% | viability, T/C (second compound 0.01 µM, first compound 3.16 µM) 9.39% | viability, T/C (second compound 0.01 µM, first compound 10 µM) 4.11% | viability, T/C (second compound 0.0316 µM, first compound 1 µM) 11.4% | viability, T/C (second compound 0.0316 µM, first compound 3.16 µM) 9.52% | viability, T/C (second compound 0.0316 µM, first compound 10 µM) 3.7% | viability, T/C (second compound 0.1 µM, first compound 1 µM) 11.2% | viability, T/C (second compound 0.1 µM, first compound 3.16 µM) 11.4% | viability, T/C (second compound 0.1 µM, first compound 10 µM) 3.67% | viability, T/C (second compound 0.316 µM, first compound 1 µM) 10.8% | viability, T/C (second compound 0.316 µM, first compound 3.16 µM) 11.4% | viability, T/C (second compound 0.316 µM, first compound 10 µM) 2.21% | viability, T/C (second compound 1 µM, first compound 1 µM) 10.6% | viability, T/C (second compound 1 µM, first compound 3.16 µM) 8.64% | viability, T/C (second compound 1 µM, first compound 10 µM) 1.87%
inactive: viability, T/C (second compound 0.00316 µM, first compound 0.0316 µM) 41.9% | viability, T/C (second compound 0.00316 µM, first compound 0.1 µM) 44.3% | viability, T/C (second compound 0.00316 µM, first compound 0.316 µM) 16.3% | viability, T/C (second compound 0.00316 µM, first compound 1 µM) 18.9% | viability, T/C (second compound 0.01 µM, first compound 0.0316 µM) 19% | viability, T/C (second compound 0.01 µM, first compound 0.1 µM) 12.6% | viability, T/C (second compound 0.01 µM, first compound 0.316 µM) 12.2% | viability, T/C (second compound 0.0316 µM, first compound 0.0316 µM) 11.6% | viability, T/C (second compound 0.0316 µM, first compound 0.1 µM) 12.4% | viability, T/C (second compound 0.0316 µM, first compound 0.316 µM) 10.9% | viability, T/C (second compound 0.1 µM, first compound 0.0316 µM) 12.5% | viability, T/C (second compound 0.1 µM, first compound 0.1 µM) 10.4% | viability, T/C (second compound 0.1 µM, first compound 0.316 µM) 11.9% | viability, T/C (second compound 0.316 µM, first compound 0.0316 µM) 12.8% | viability, T/C (second compound 0.316 µM, first compound 0.1 µM) 12.9% | viability, T/C (second compound 0.316 µM, first compound 0.316 µM) 12.2% | viability, T/C (second compound 1 µM, first compound 0.0316 µM) 13.9% | viability, T/C (second compound 1 µM, first compound 0.1 µM) 12.2% | viability, T/C (second compound 1 µM, first compound 0.316 µM) 13%
< 31.6 nM: IC50 (curve of first compound, second compound 0.00316 µM) | IC50 (curve of first compound, second compound 0.01 µM) | IC50 (curve of first compound, second compound 0.0316 µM) | IC50 (curve of first compound, second compound 0.1 µM) | IC50 (curve of first compound, second compound 0.316 µM) | IC50 (curve of first compound, second compound 1 µM)

Cn1ncnc1[C@H]1c2n[nH]c(=O)c3cc(F)cc(c23)N[C@@H]1c1ccc(F)cc1
inactive: viability, T/C (compound 0.000316 µM) 95.7% and 82.9% and 96.4% | viability, T/C (compound 0.001 µM) 97.3% and 106% and 99.9% | viability, T/C (compound 0.00316 µM) 97.1% and 107% and 101% | viability, T/C (compound 0.01 µM) 63.8% and 84.2% and 67.2% | viability, T/C (compound 0.0316 µM) 60% and 87.7% and 88.1% | viability, T/C (compound 0.1 µM) 48.8% and 84.9% and 75.1%
> 100 nM: IC50 (curve of compound)

O=C(c1cc(Cc2n[nH]c(=O)c3ccccc23)ccc1F)N1CCN(C(=O)C2CC2)CC1 + CCN1C(C(=O)NC23CCC(C(=O)O)(CC2)CC3)C(c2cccc(Cl)c2F)C2(C(=O)Nc3cc(Cl)ccc32)C12CCCCC2
< 31.6 nM: IC50 [3] | IC50 [4] | IC50 [5] | IC50 [6]
> 10000 nM: IC50 [1] | IC50 [2]
inactive: viability, T/C [7] 133% | viability, T/C [8] 96.8% | viability, T/C [9] 107% | viability, T/C [10] 106% | viability, T/C (second compound 0.00949 µM, first compound 3.16 µM) 92.3% | viability, T/C (second compound 0.00949 µM, first compound 10 µM) 73% | viability, T/C [11] 85.6% | viability, T/C [12] 81.5% | viability, T/C [13] 87% | viability, T/C [14] 86% | viability, T/C (second compound 0.03 µM, first compound 3.16 µM) 74.2% | viability, T/C (second compound 0.03 µM, first compound 10 µM) 62.2% | viability, T/C [15] 46.7% | viability, T/C [16] 47.4% | viability, T/C [17] 51.4% | viability, T/C [18] 45.5% | viability, T/C (second compound 0.0949 µM, first compound 3.16 µM) 38.9% | viability, T/C (second compound 0.0949 µM, first compound 10 µM) 44.5% | viability, T/C [19] 34.3% | viability, T/C [20] 30.3% | viability, T/C [21] 32.8% | viability, T/C [22] 30.6% | viability, T/C (second compound 0.3 µM, first compound 3.16 µM) 29.4% | viability, T/C (second compound 0.3 µM, first compound 10 µM) 29% | viability, T/C [23] 21% | viability, T/C [24] 22.7% | viability, T/C [25] 21.5% | viability, T/C [26] 21.6% | viability, T/C (second compound 0.949 µM, first compound 3.16 µM) 25.7% | viability, T/C (second compound 0.949 µM, first compound 10 µM) 19.6% | viability, T/C [27] 13.7% | viability, T/C [28] 16.2% | viability, T/C [29] 14.4% | viability, T/C [30] 14.9% | viability, T/C (second compound 3 µM, first compound 3.16 µM) 18.9% | viability, T/C (second compound 3 µM, first compound 10 µM) 15.9%

O=C(c1ccc(F)c(F)c1Nc1ccc(I)cc1F)N1CC(O)([C@@H]2CCCCN2)C1 + CCN1C(C(=O)NC23CCC(C(=O)O)(CC2)CC3)C(c2cccc(Cl)c2F)C2(C(=O)Nc3cc(Cl)ccc32)C12CCCCC2
> 1000 nM: IC50 [1] | IC50 [2]
< 3.16 nM: IC50 [3] | IC50 [4] | IC50 [5] | IC50 [6]
inactive: viability, T/C (second compound 0.00949 µM, first compound 0.00316 µM) 104% | viability, T/C (second compound 0.00949 µM, first compound 0.01 µM) 101% | viability, T/C [7] 111% | viability, T/C [8] 97.2% | viability, T/C [9] 94.9% | viability, T/C [10] 100% | viability, T/C (second compound 0.03 µM, first compound 0.00316 µM) 105% | viability, T/C (second compound 0.03 µM, first compound 0.01 µM) 99.4% | viability, T/C [11] 93.9% | viability, T/C [12] 96.6% | viability, T/C [13] 81.4% | viability, T/C [14] 63.5% | viability, T/C (second compound 0.0949 µM, first compound 0.00316 µM) 50.6% | viability, T/C (second compound 0.0949 µM, first compound 0.01 µM) 44% | viability, T/C [15] 46.5% | viability, T/C [16] 44.4% | viability, T/C [17] 44.8% | viability, T/C [18] 38.7% | viability, T/C (second compound 0.3 µM, first compound 0.00316 µM) 32.1% | viability, T/C (second compound 0.3 µM, first compound 0.01 µM) 28% | viability, T/C [19] 26.7% | viability, T/C [20] 26.6% | viability, T/C [21] 33% | viability, T/C [22] 24.5% | viability, T/C (second compound 0.949 µM, first compound 0.00316 µM) 16.4% | viability, T/C (second compound 0.949 µM, first compound 0.01 µM) 19.6% | viability, T/C [23] 14.8% | viability, T/C [24] 15.3% | viability, T/C [25] 13.4% | viability, T/C [26] 13.3% | viability, T/C (second compound 3 µM, first compound 0.00316 µM) 14.3% | viability, T/C (second compound 3 µM, first compound 0.01 µM) 14.3% | viability, T/C [27] 9.2% | viability, T/C [28] 12.3% | viability, T/C [29] 14.2% | viability, T/C [30] 11%
